Laboratory results published in patent publication USRE40086E1, “Method for treating bacterial infection with novel 7-substituted-9-substituted amino 6-demethyl-6-deoxytetracyclines” (Wyeth Holdings Corporation, priority 1991, dated 2008).

Key:
Assay type in all cases: cell-based
[1] = system: S. aureus UBMS 88-7 (tetK); test: MIC, agar dilution; conditions: S. aureus UBMS 88-7 TetK; Table IA; unit assumed
[2] = system: S. aureus UBMS 90-2 (tetM); test: MIC, agar dilution; conditions: S. aureus UBMS 90-2 TetM; Table IA; unit assumed
[3] = system: E. coli PRP1 TetA; test: MIC, agar dilution (Table IA); conditions: unit assumed
[4] = system: S. mariescens FDOR 8733; test: MIC, agar dilution (Table IA); conditions: unit assumed
[5] = system: E. coli UBMS 89-2 (Sensitive); test: MIC, agar dilution; conditions: E. coli UBMS 89-2 Tet Sens.; Table IA; unit assumed
[6] = system: E. coli UBMS 90-4 (tetM); test: MIC, agar dilution; conditions: E. coli UBMS 90-4 TetM; Table IA; unit assumed
[7] = system: E. faecalis ATCC 29212; test: MIC, agar dilution; conditions: E. faecalis ATCC 29212; Table IA; unit assumed
[8] = system: S. aureus NEMC 8769/89-4; test: MIC, agar dilution (Table IA); conditions: unit assumed
[9] = system: S. aureus ROSE (MP); test: MIC, agar dilution (Table IA); conditions: unit assumed
[10] = system: E. faecalis 12201; test: MIC, agar dilution; conditions: Enterococcus 12201; Table IA; unit assumed
[11] = system: E. coli ATCC 25922; test: MIC, agar dilution; conditions: E. coli ATCC 25922; Table IA; unit assumed
[12] = system: Ps. acruginosa ATCC 27853; test: MIC, agar dilution (Table IA); conditions: unit assumed
[13] = system: S. aureus IVES 1983 (meth. resistant); test: MIC, agar dilution; conditions: S. aureus IVES 1983; Table IA; unit assumed
[14] = system: S. aureus ATCC 29213 (Sensitive); test: MIC, agar dilution; conditions: S. aureus ATCC 29213; Table IA; unit assumed
[15] = system: E. coli J2175; test: MIC, agar dilution (Table IA); conditions: unit assumed
[16] = system: S. aureus Smith (Sensitive); test: MIC, agar dilution; conditions: S. aureus SMITH (MP); Table IA; unit assumed
[17] = system: E. coli MC4100 TetB; test: MIC, agar dilution (Table IA); conditions: unit assumed
[18] = system: E. coli J3272 Tet sens.; test: MIC, agar dilution (Table IA); conditions: unit assumed
[19] = system: S. aureus IVES 2943 (meth. resistant); test: MIC, agar dilution; conditions: S. aureus IVES 2943; Table IA; unit assumed
[20] = system: E. coli UBMS 90-5; test: MIC, agar dilution (Table IA); conditions: unit assumed
[21] = system: E. coli UBMS 89-1 (tetM); test: MIC, agar dilution; conditions: E. coli UBMS 89-1 TetM; Table IA; unit assumed
[22] = system: S. aureus UBMS 90-1 (tetM); test: MIC, agar dilution; conditions: S. aureus UBMS 90-1 TetM; Table IA; unit assumed
[23] = system: E. coli #311 (MP); test: MIC, agar dilution (Table IA); conditions: unit assumed
[24] = system: E. coli BAJ9003; test: MIC, agar dilution (Table IA); conditions: unit assumed
[25] = system: S. aureus UBMS 90-3 (Sensitive); test: MIC, agar dilution; conditions: S. aureus UBMS 90-3; Table IA; unit assumed
[26] = system: X. maltophilia NEMC 87210; test: MIC, agar dilution (Table IA); conditions: unit assumed
[27] = system: E. coli J3272 TetD; test: MIC, agar dilution (Table IA); conditions: unit assumed
[28] = system: S. aureus UBMS 88-5 (tetM); test: MIC, agar dilution; conditions: S. aureus UBMS 88-5 TetM; Table IA; unit assumed
[29] = system: E. coli UBMS 88-1 (tetB); test: MIC, agar dilution; conditions: E. coli UBMS 88-1 TetB; Table IA; unit assumed
[30] = system: S. aureus UBMS 88-4 (Sensitive); test: MIC, agar dilution; conditions: S. aureus UBMS 88-4; Table IA; unit assumed
[31] = system: E. coli J3272 TetC; test: MIC, agar dilution (Table IA); conditions: unit assumed
[32] = system: S. haemolyticus AVAH 88-3; test: MIC, agar dilution; conditions: S. hemolyticus AVHAH 88-3; Table IA; unit assumed

CN(C)c1cc(NC(=O)CNC2CCC2)c(O)c2c1CC1CC3C(N(C)C)C(O)=C(C(N)=O)C(=O)C3(O)C(O)=C1C2=O (stereo not drawn) [MMM, [4S-(4alpha,12aalpha)]-g-[[(Cyclobutylamino)acetyl]amino]-4,7-Bis(dimethylamino)-1,4,4a,5,5a,6,11,12a-octahydro-3,10,12,12a-tetrahydroxy-1,11-dioxo-2-naphthacenecarboxamide]
Antibacterial activity (MIC) [1]: 4 µg/mL | Antibacterial activity (MIC) [2]: 0.25 µg/mL | Antibacterial activity (MIC) [3]: 4 µg/mL | Antibacterial activity (MIC) [4]: 8 µg/mL | Antibacterial activity (MIC) [5]: 0.5 µg/mL | Antibacterial activity (MIC) [6]: 0.25 µg/mL | Antibacterial activity (MIC) [7]: 0.25 µg/mL | Antibacterial activity (MIC) [8]: 0.5 µg/mL | Antibacterial activity (MIC) [9]: 8 µg/mL | Antibacterial activity (MIC) [10]: 0.24 µg/mL | Antibacterial activity (MIC) [11]: 0.25 µg/mL | Antibacterial activity (MIC) [12]: 32 µg/mL | Antibacterial activity (MIC) [13]: 4 µg/mL | Antibacterial activity (MIC) [14]: 0.25 µg/mL | Antibacterial activity (MIC) [15]: 0.25 µg/mL | Antibacterial activity (MIC) [16]: 0.25 µg/mL | Antibacterial activity (MIC) [17]: 0.25 µg/mL | Antibacterial activity (MIC) [18]: 0.06 µg/mL | Antibacterial activity (MIC) [19]: 4 µg/mL | Antibacterial activity (MIC) [20]: 0.5 µg/mL | Antibacterial activity (MIC) [21]: 0.25 µg/mL | Antibacterial activity (MIC) [22]: 0.5 µg/mL | Antibacterial activity (MIC) [23]: 0.25 µg/mL | Antibacterial activity (MIC) [24]: 0.03 µg/mL | Antibacterial activity (MIC) [25]: 0.12 µg/mL | Antibacterial activity (MIC) [26]: 0.5 µg/mL | Antibacterial activity (MIC) [27]: 0.12 µg/mL | Antibacterial activity (MIC) [28]: 0.25 µg/mL | Antibacterial activity (MIC) [29]: 0.5 µg/mL | Antibacterial activity (MIC) [30]: 0.25 µg/mL | Antibacterial activity (MIC) [31]: 0.5 µg/mL | Antibacterial activity (MIC) [32]: 0.24 µg/mL

CN(C)c1cc(NC(=O)CN2CCC2)c(O)c2c1CC1CC3C(N(C)C)C(O)=C(C(N)=O)C(=O)C3(O)C(O)=C1C2=O (stereo not drawn) [LLL, (7S-(7alpha,10aalpha)]-N-[9-(Aminocarbonyl)-4,7-bis(dimethylamino)-5,5a,6,6a,7,10,10a,12-octahydro-1,8,10a,11-tetrahydroxy-10,12-dioxo-2-naphthacenyl]-1-azetidineacetamide]
Antibacterial activity (MIC) [1]: 2 µg/mL | Antibacterial activity (MIC) [2]: 0.25 µg/mL | Antibacterial activity (MIC) [3]: 1 µg/mL | Antibacterial activity (MIC) [4]: 2 µg/mL | Antibacterial activity (MIC) [5]: 0.5 µg/mL | Antibacterial activity (MIC) [6]: 0.25 µg/mL | Antibacterial activity (MIC) [7]: 0.25 µg/mL | Antibacterial activity (MIC) [8]: 0.12 µg/mL | Antibacterial activity (MIC) [9]: 2 µg/mL | Antibacterial activity (MIC) [10]: 0.25 µg/mL | Antibacterial activity (MIC) [11]: 0.25 µg/mL | Antibacterial activity (MIC) [12]: 8 µg/mL | Antibacterial activity (MIC) [13]: 2 µg/mL | Antibacterial activity (MIC) [14]: 0.25 µg/mL | Antibacterial activity (MIC) [15]: 0.25 µg/mL | Antibacterial activity (MIC) [16]: 0.25 µg/mL | Antibacterial activity (MIC) [17]: 0.5 µg/mL | Antibacterial activity (MIC) [18]: 0.25 µg/mL | Antibacterial activity (MIC) [19]: 2 µg/mL | Antibacterial activity (MIC) [20]: 0.25 µg/mL | Antibacterial activity (MIC) [21]: 0.25 µg/mL | Antibacterial activity (MIC) [22]: 0.25 µg/mL | Antibacterial activity (MIC) [23]: 0.25 µg/mL | Antibacterial activity (MIC) [24]: 0.06 µg/mL | Antibacterial activity (MIC) [25]: 0.12 µg/mL | Antibacterial activity (MIC) [26]: 1 µg/mL | Antibacterial activity (MIC) [27]: 0.12 µg/mL | Antibacterial activity (MIC) [28]: 0.25 µg/mL | Antibacterial activity (MIC) [29]: 0.5 µg/mL | Antibacterial activity (MIC) [30]: 0.25 µg/mL | Antibacterial activity (MIC) [31]: 0.5 µg/mL | Antibacterial activity (MIC) [32]: 0.25 µg/mL

Br.CC(Br)C(=O)Nc1cc(N(C)C)c2c(c1O)C(=O)C1=C(O)C3(O)C(=O)C(C(N)=O)=C(O)C(N(C)C)C3CC1C2 (stereo not drawn) [JJJ]
Antibacterial activity (MIC) [1]: 16 µg/mL | Antibacterial activity (MIC) [2]: 8 µg/mL | Antibacterial activity (MIC) [3]: > 32 µg/mL | Antibacterial activity (MIC) [4]: > 32 µg/mL | Antibacterial activity (MIC) [5]: > 32 µg/mL | Antibacterial activity (MIC) [6]: > 32 µg/mL | Antibacterial activity (MIC) [7]: 16 µg/mL | Antibacterial activity (MIC) [8]: 4 µg/mL | Antibacterial activity (MIC) [9]: > 32 µg/mL | Antibacterial activity (MIC) [10]: 16 µg/mL | Antibacterial activity (MIC) [11]: > 32 µg/mL | Antibacterial activity (MIC) [12]: > 32 µg/mL | Antibacterial activity (MIC) [13]: 32 µg/mL | Antibacterial activity (MIC) [14]: 4 µg/mL | Antibacterial activity (MIC) [15]: > 32 µg/mL | Antibacterial activity (MIC) [16]: 4 µg/mL | Antibacterial activity (MIC) [17]: > 32 µg/mL | Antibacterial activity (MIC) [18]: > 32 µg/mL | Antibacterial activity (MIC) [19]: 32 µg/mL | Antibacterial activity (MIC) [20]: > 32 µg/mL | Antibacterial activity (MIC) [21]: 32 µg/mL | Antibacterial activity (MIC) [22]: 16 µg/mL | Antibacterial activity (MIC) [23]: > 32 µg/mL | Antibacterial activity (MIC) [24]: 4 µg/mL | Antibacterial activity (MIC) [25]: 2 µg/mL | Antibacterial activity (MIC) [26]: 16 µg/mL | Antibacterial activity (MIC) [27]: > 32 µg/mL | Antibacterial activity (MIC) [28]: 8 µg/mL | Antibacterial activity (MIC) [29]: > 32 µg/mL | Antibacterial activity (MIC) [30]: 8 µg/mL | Antibacterial activity (MIC) [31]: > 32 µg/mL | Antibacterial activity (MIC) [32]: 16 µg/mL
